Test results from PMC11883961 (RSC Chemical Biology, 2025).

Tests used:
[1] = biological target: FKBP12-LgBiT and MAPRE1 (N183-Y268)-SmBiT in HEK293T cells (Homo sapiens, UniProt P62942+Q15691); assay: NanoBiT FKBP12-MAPRE1 recruitment experiments; assay type: cell-based
[2] = biological target: FKBP12 ligand pocket (FKBP12-LgBiT/MAPRE1-SmBiT in HEK293T cells) (Homo sapiens, UniProt P62942+Q15691); assay: NanoBiT FKBP ligand competition experiments; assay type: cell-based; conditions: 80 μM competitor; recruiters up to 20 μM
FKBP12 ligand pocket (FKBP12-LgBiT/MAPRE1-SmBiT in HEK293T cells), sequence (P62942 whole entry): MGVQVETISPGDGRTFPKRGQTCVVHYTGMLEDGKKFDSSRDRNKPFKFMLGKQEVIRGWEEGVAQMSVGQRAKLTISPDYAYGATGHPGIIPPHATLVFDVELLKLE
FKBP12 ligand pocket (FKBP12-LgBiT/MAPRE1-SmBiT in HEK293T cells), sequence (Q15691 183-268): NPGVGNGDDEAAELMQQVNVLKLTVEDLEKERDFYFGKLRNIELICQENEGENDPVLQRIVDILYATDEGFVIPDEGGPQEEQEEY

FKBP12-LgBiT and MAPRE1 (N183-Y268)-SmBiT in HEK293T cells, sequence (P62942 whole entry): as the sequence (P62942 whole entry) above
FKBP12-LgBiT and MAPRE1 (N183-Y268)-SmBiT in HEK293T cells, sequence (Q15691 183-268): as the sequence (Q15691 183-268) above

CO[C@H]1C[C@@H]2CC[C@@H](C)[C@@](O)(O2)C(=O)C(=O)N2CCCC[C@H]2C(=O)O[C@H]([C@H](C)C[C@@H]2CC[C@@H](O)[C@H](OC)C2)CC(=O)[C@H](C)/C=C(\C)[C@@H](O)[C@@H](OC)C(=O)[C@H](C)C[C@H](C)/C=C/C=C/C=C/1C [Rapamycin]
recruitment of MAPRE1 to FKBP12 in cells [1]: neither of which measurably recruits MAPRE1 to FKBP12 | ability to outcompete glue recruiters for FKBP12 [2]: able to outcompete even the highest dose of all glue recruiters tested
